Experimental data: US20230071978A1, “METHOD FOR TREATING IDH1 INHIBITOR-RESISTANT SUBJECTS” (Eli Lilly and Company, priority 2020, published 2023)

Experiments:
IDH1R132L_S280F cis = target: T1, IDH1R132L_S280F cis (Homo sapiens, UniProt O75874, R132L/S280F); assay: 2-HG cell-based inhibition assay, U87MG IDH1R132L_S280F cis; conditions: Cell line construct U87MG IDH1R132L_S280F cis; 2-HG by LC-MS
T1 construct: expressed in transfected cells; host or cells: U-87 MG (ATCC HTB-14)
Protocol: (§1) Compounds and Formulation. […] DMSO preps are further diluted with cell culture media prior to addition in the assay.
(§2) Cell lines. U-87 MG cells (ATCC, HTB-14) are cultured and assayed in MEM (Gibco, 11095) with 2 mM GlutaMAX (Gibco, 35050), 1 mM Pyruvate (Gibco, 11360), 0.1 mM NEAA ((Non-essential amino acid) Gibco, 11140) and 10% dialyzed FBS (Fetal bovine serum) (Gibco, 26400). Ba/F3 cells (DSMZ, ACC 300) are cultured and assayed in RPMI 1640 (Gibco, 22400) with 10% heat inactivated FBS (Gibco, 10082-147) and 10 ng/ml mouse IL3 (R&D systems, 403-ML-025).
(§3) Cell-based inhibition assays. Cell-based assays are performed by measuring 2-HG in either U-87 MG cells or Ba/F3 cells in which IDH mutations are expressed.
(§4) DNA constructs encoding IDH1 mutations are introduced into U-87 MG cells using transfection (Promega FuGENE HD, E2311) or lentiviral transduction, and the IDH-mutant expressing cell lines are selected using blasticidin (5 μg/ml) or puromycin (1 μg/ml). […]
(§5) LC-MS metabolite analysis of conditioned media and cell lysates. The effect of inhibitors on the concentrations of 2-HG are determined by liquid chromatography-mass spectrometry (LC-MS) analysis of cell lysates or conditioned media using either a derivatization method or an ion-pairing method as described below. […]

R132H_S280F mutant IDH1 [1] = target: T2, R132H_S280F mutant IDH1 (Homo sapiens, UniProt O75874, R132H/S280F); assay: 2-HG cell-based inhibition assay, Ba/F3 R132H_S280F; conditions: Cell line construct Ba/F3 R132H_S280F; 2-HG in conditioned media by LC-MS
T2 construct: myc; expressed in transfected cells; host or cells: Ba/F3 (DSMZ ACC 300), stably transfected

IDH1R132H_H315D cis = target: T3, IDH1R132H_H315D cis (Homo sapiens, UniProt O75874, H315D/R132H); assay: 2-HG cell-based inhibition assay, U87MG IDH1R132H_H315D cis; conditions: Cell line construct U87MG IDH1R132H_H315D cis; 2-HG by LC-MS
T3 construct: expressed in transfected cells; host or cells: U-87 MG (ATCC HTB-14)
Protocol: as §1, §2, §3, §4, §5

R132H mutant IDH1 [2] = target: T4, R132H mutant IDH1 (Homo sapiens, UniProt O75874, R132H); assay: 2-HG cell-based inhibition assay, Ba/F3 R132H; conditions: Cell line construct Ba/F3 R132H; 2-HG in conditioned media by LC-MS
T4 construct: myc; expressed in transfected cells; host or cells: Ba/F3 (DSMZ ACC 300), stably transfected
Protocol: as §1, §3
Ba/F3 cells are transfected with DNA constructs encoding IDH1R132H-myc, IDH1R132H_S280E-myc, or IDH1R132C_S280E-myc constructs using NEON Transfection system (Life Technologies, MPK10025) and isolated using Puromycin (2 μg/mL) or Blasticidin (10 μg/mL). Stably transfected lines are used for inhibitor assays. […] Cells are treated with serial dilutions of the desired compounds in standard growth media. Plates are incubated in a mammalian cell culture incubator (humidified, 37° C., 5% CO2) for the desired time (72 or 96 hours). Following the incubation period, conditioned media from each well is collected for 2-HG analysis by LC-MS.
LC-MS metabolite analysis of conditioned media and cell lysates. The effect of inhibitors on the concentrations of 2-HG are determined by liquid chromatography-mass spectrometry (LC-MS) analysis of cell lysates or conditioned media using either a derivatization method or an ion-pairing method as described below.
For the derivatization LC-MS method, calibration curves are prepared by spiking 2-HG and α-KG into cell culture media and cell lysis buffer respectively. […]

IDH1R132H_G131A cis = target: T5, IDH1R132H_G131A cis (Homo sapiens, UniProt O75874, G131A/R132H); assay: 2-HG cell-based inhibition assay, U87MG IDH1R132H_G131A cis; conditions: Cell line construct U87MG IDH1R132H_G131A cis; 2-HG by LC-MS
T5 construct: expressed in transfected cells; host or cells: U-87 MG (ATCC HTB-14)
Protocol: as §1, §2, §3, §4, §5

IDH1R132L_R119P cis = target: T6, IDH1R132L_R119P cis (Homo sapiens, UniProt O75874, R119P/R132L); assay: 2-HG cell-based inhibition assay, U87MG IDH1R132L_R119P cis; conditions: Cell line construct U87MG IDH1R132L_R119P cis; 2-HG by LC-MS
T6 construct: expressed in transfected cells; host or cells: U-87 MG (ATCC HTB-14)
Protocol: as §1, §2, §3, §4, §5

IDH1R132H_D279N cis = target: T7, IDH1R132H_D279N cis (Homo sapiens, UniProt O75874, D279N/R132H); assay: 2-HG cell-based inhibition assay, U87MG IDH1R132H_D279N cis; conditions: Cell line construct U87MG IDH1R132H_D279N cis; 2-HG by LC-MS
T7 construct: expressed in transfected cells; host or cells: U-87 MG (ATCC HTB-14)
Protocol: as §1, §2, §3, §4, §5

IDH1R132H_R119P cis = target: T8, IDH1R132H_R119P cis (Homo sapiens, UniProt O75874, R119P/R132H); assay: 2-HG cell-based inhibition assay, U87MG IDH1R132H_R119P cis; conditions: Cell line construct U87MG IDH1R132H_R119P cis; 2-HG by LC-MS
T8 construct: expressed in transfected cells; host or cells: U-87 MG (ATCC HTB-14)
Protocol: as §1, §2, §3, §4, §5

R132C_S280F mutant IDH1 [3] = target: T9, R132C_S280F mutant IDH1 (Homo sapiens, UniProt O75874, R132C/S280F); assay: 2-HG cell-based inhibition assay, Ba/F3 R132C_S280F; conditions: Cell line construct Ba/F3 R132C_S280F; 2-HG in conditioned media by LC-MS
T9 construct: myc; expressed in transfected cells; host or cells: Ba/F3 (DSMZ ACC 300), stably transfected

IDH1R132C_H315D cis = target: T10, IDH1R132C_H315D cis (Homo sapiens, UniProt O75874, H315D/R132C); assay: 2-HG cell-based inhibition assay, U87MG IDH1R132C_H315D cis; conditions: Cell line construct U87MG IDH1R132C_H315D cis; 2-HG by LC-MS
T10 construct: expressed in transfected cells; host or cells: U-87 MG (ATCC HTB-14)
Protocol: as §1, §2, §3, §4, §5

R132C_S280F mutant IDH1 [4] = target: T9, R132C_S280F mutant IDH1; assay: 2-HG cell-based inhibition assay, U87MG R132C_S280F; conditions: Cell line construct U87MG R132C_S280F; 2-HG by LC-MS
Protocol: as §1, §2, §3, §4, §5

IDH1R132C_D279N cis = target: T11, IDH1R132C_D279N cis (Homo sapiens, UniProt O75874, D279N/R132C); assay: 2-HG cell-based inhibition assay, U87MG IDH1R132C_D279N cis; conditions: Cell line construct U87MG IDH1R132C_D279N cis; 2-HG by LC-MS
T11 construct: expressed in transfected cells; host or cells: U-87 MG (ATCC HTB-14)
Protocol: as §1, §2, §3, §4, §5

IDH1R132C_R119P cis = target: T12, IDH1R132C_R119P cis (Homo sapiens, UniProt O75874, R119P/R132C); assay: 2-HG cell-based inhibition assay, U87MG IDH1R132C_R119P cis; conditions: Cell line construct U87MG IDH1R132C_R119P cis; 2-HG by LC-MS
T12 construct: expressed in transfected cells; host or cells: U-87 MG (ATCC HTB-14)
Protocol: as §1, §2, §3, §4, §5

IDH1R132C_G131A cis = target: T13, IDH1R132C_G131A cis (Homo sapiens, UniProt O75874, G131A/R132C); assay: 2-HG cell-based inhibition assay, U87MG IDH1R132C_G131A cis; conditions: Cell line construct U87MG IDH1R132C_G131A cis; 2-HG by LC-MS
T13 construct: expressed in transfected cells; host or cells: U-87 MG (ATCC HTB-14)
Protocol: as §1, §2, §3, §4, §5

R132H mutant IDH1 [5] = target: T4, R132H mutant IDH1; assay: 2-HG cell-based inhibition assay, U87MG R132H; conditions: Cell line construct U87MG R132H; 2-HG by LC-MS
Protocol: as §1, §2, §3, §4, §5

IDH1R132C_G289D cis = target: T14, IDH1R132C_G289D cis (Homo sapiens, UniProt O75874, G289D/R132C); assay: 2-HG cell-based inhibition assay, U87MG IDH1R132C_G289D cis; conditions: Cell line construct U87MG IDH1R132C_G289D cis; 2-HG by LC-MS
T14 construct: expressed in transfected cells; host or cells: U-87 MG (ATCC HTB-14)
Protocol: as §1, §2, §3, §4, §5

IDH1R132L_G289D cis = target: T15, IDH1R132L_G289D cis (Homo sapiens, UniProt O75874, G289D/R132L); assay: 2-HG cell-based inhibition assay, U87MG IDH1R132L_G289D cis; conditions: Cell line construct U87MG IDH1R132L_G289D cis; 2-HG by LC-MS
T15 construct: expressed in transfected cells; host or cells: U-87 MG (ATCC HTB-14)
Protocol: as §1, §2, §3, §4, §5

R132H_S280F mutant IDH1 [6] = target: T2, R132H_S280F mutant IDH1; assay: 2-HG cell-based inhibition assay, U87MG R132H_S280F; conditions: Cell line construct U87MG R132H_S280F; 2-HG by LC-MS
Protocol: as §1, §2, §3, §4, §5

IDH1R132L_H315D cis = target: T16, IDH1R132L_H315D cis (Homo sapiens, UniProt O75874, H315D/R132L); assay: 2-HG cell-based inhibition assay, U87MG IDH1R132L_H315D cis; conditions: Cell line construct U87MG IDH1R132L_H315D cis; 2-HG by LC-MS
T16 construct: expressed in transfected cells; host or cells: U-87 MG (ATCC HTB-14)
Protocol: as §1, §2, §3, §4, §5

IDH1R132L_D279N cis = target: T17, IDH1R132L_D279N cis (Homo sapiens, UniProt O75874, D279N/R132L); assay: 2-HG cell-based inhibition assay, U87MG IDH1R132L_D279N cis; conditions: Cell line construct U87MG IDH1R132L_D279N cis; 2-HG by LC-MS
T17 construct: expressed in transfected cells; host or cells: U-87 MG (ATCC HTB-14)
Protocol: as §1, §2, §3, §4, §5

IDH1R132L_G131A cis = target: T18, IDH1R132L_G131A cis (Homo sapiens, UniProt O75874, G131A/R132L); assay: 2-HG cell-based inhibition assay, U87MG IDH1R132L_G131A cis; conditions: Cell line construct U87MG IDH1R132L_G131A cis; 2-HG by LC-MS
T18 construct: expressed in transfected cells; host or cells: U-87 MG (ATCC HTB-14)
Protocol: as §1, §2, §3, §4, §5

T2 sequence (O75874 whole entry R132H/S280F): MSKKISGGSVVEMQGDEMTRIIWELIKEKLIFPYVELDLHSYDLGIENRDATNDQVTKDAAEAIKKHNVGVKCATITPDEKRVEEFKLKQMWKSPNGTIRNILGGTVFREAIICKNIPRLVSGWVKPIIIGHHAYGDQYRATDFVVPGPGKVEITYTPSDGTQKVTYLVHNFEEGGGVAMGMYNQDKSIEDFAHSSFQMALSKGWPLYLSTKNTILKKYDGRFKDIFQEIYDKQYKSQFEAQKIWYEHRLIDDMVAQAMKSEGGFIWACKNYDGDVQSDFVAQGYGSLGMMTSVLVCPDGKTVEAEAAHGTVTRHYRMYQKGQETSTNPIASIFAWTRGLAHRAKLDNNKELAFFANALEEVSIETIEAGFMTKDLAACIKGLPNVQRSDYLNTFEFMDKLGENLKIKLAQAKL
T9 sequence (O75874 whole entry R132C/S280F): as the sequence (O75874 whole entry R132H/S280F) above, with H132C counted along it
T4 sequence (O75874 whole entry R132H): as the sequence (O75874 whole entry R132H/S280F) above, with F280S counted along it
T11 sequence (O75874 whole entry R132C/D279N): as the sequence (O75874 whole entry R132H/S280F) above, with H132C, D279N, F280S counted along it
T3 sequence (O75874 whole entry R132H/H315D): as the sequence (O75874 whole entry R132H/S280F) above, with F280S, H315D counted along it
T1 sequence (O75874 whole entry R132L/S280F): as the sequence (O75874 whole entry R132H/S280F) above, with H132L counted along it
T12 sequence (O75874 whole entry R119P/R132C): as the sequence (O75874 whole entry R132H/S280F) above, with R119P, H132C, F280S counted along it
T15 sequence (O75874 whole entry R132L/G289D): as the sequence (O75874 whole entry R132H/S280F) above, with H132L, F280S, G289D counted along it
T16 sequence (O75874 whole entry R132L/H315D): as the sequence (O75874 whole entry R132H/S280F) above, with H132L, F280S, H315D counted along it
T17 sequence (O75874 whole entry R132L/D279N): as the sequence (O75874 whole entry R132H/S280F) above, with H132L, D279N, F280S counted along it
T18 sequence (O75874 whole entry G131A/R132L): as the sequence (O75874 whole entry R132H/S280F) above, with G131A, H132L, F280S counted along it
T5 sequence (O75874 whole entry G131A/R132H): as the sequence (O75874 whole entry R132H/S280F) above, with G131A, F280S counted along it
T6 sequence (O75874 whole entry R119P/R132L): as the sequence (O75874 whole entry R132H/S280F) above, with R119P, H132L, F280S counted along it
T10 sequence (O75874 whole entry R132C/H315D): as the sequence (O75874 whole entry R132H/S280F) above, with H132C, F280S, H315D counted along it
T14 sequence (O75874 whole entry R132C/G289D): as the sequence (O75874 whole entry R132H/S280F) above, with H132C, F280S, G289D counted along it
T7 sequence (O75874 whole entry R132H/D279N): as the sequence (O75874 whole entry R132H/S280F) above, with D279N, F280S counted along it
T8 sequence (O75874 whole entry R119P/R132H): as the sequence (O75874 whole entry R132H/S280F) above, with R119P, F280S counted along it
T13 sequence (O75874 whole entry G131A/R132C): as the sequence (O75874 whole entry R132H/S280F) above, with G131A, H132C, F280S counted along it

IC50 (IDH1R132L_S280F cis): 179 nM
IC50 (R132H_S280F mutant IDH1 [1]): 1.13 nM
IC50 (IDH1R132H_H315D cis): 1.49 nM
IC50 (R132H mutant IDH1 [2]): 0.11 nM
IC50 (IDH1R132H_G131A cis): 5.89 nM
IC50 (IDH1R132L_R119P cis): 89.7 nM
IC50 (IDH1R132H_D279N cis): 13.8 nM
IC50 (IDH1R132H_R119P cis): 2.52 nM
IC50 (R132C_S280F mutant IDH1 [3]): 1.53 nM
IC50 (IDH1R132C_H315D cis): 1.33 nM
IC50 (R132C_S280F mutant IDH1 [4]): 12.5 nM
IC50 (IDH1R132C_D279N cis): 102 nM
IC50 (IDH1R132C_R119P cis): 10.5 nM
IC50 (IDH1R132C_G131A cis): 25.6 nM
IC50 (R132H mutant IDH1 [5]): 0.32 nM
IC50 (IDH1R132C_G289D cis): 23.5 nM
IC50 (IDH1R132L_G289D cis): 29.4 nM
IC50 (R132H_S280F mutant IDH1 [6]): 2.58 nM
IC50 (IDH1R132L_H315D cis): 5.07 nM
IC50 (IDH1R132L_D279N cis): 645 nM
IC50 (IDH1R132L_G131A cis): 64.5 nM
SMILES: C=CC(=O)N1CCN([C@@H](CC2CC2)c2ccc([C@H](C)Nc3ncc4c(n3)N(CC)C(=O)OC4)cc2)CC1 [Compound A, 7-[[(1S)-1-[4-[(1S)-2-cyclopropyl-1-(4-prop-2-enoylpiperazin-1-yl)ethyl]phenyl]ethyl]amino]-1-ethyl-4H-pyrimido[4,5-d][1,3]oxazin-2-one]
